22 molecules from US4992450A, “Piperidine opioid antagonists” (Eli Lilly and Company, priority 1989, dated 1991) can be followed below.

The target in one experiment is T1, mu receptor (Mus musculus, UniProt P42866).
T1 construct: Five CF-1 male mice (Charles River, Portage, Mich.); from tissue; host or cells: whole living CF-1 male mice (in vivo)
Put plainly: Mouse writhing assay, antagonism of morphine analgesia (mu). Type of experiment: in vivo, CF-1 male mice. The conditions noted are these: sc, read-out: Mu AD50. For orientation: An intraperitoneal irritant provokes the stretching counted in writhing tests.

The next experiment addresses T2, kappa receptor (Mus musculus, UniProt P33534).
T2 construct: Five CF-1 male mice (Charles River, Portage, Mich.); from tissue; host or cells: whole living CF-1 male mice (in vivo)
As to the kind of experiment: in vivo. Also noted: species or system CF-1 male mice. The conditions noted are these: sc, read-out: Kappa AD50.

The target in a further experiment is T3, kappa receptors (Rattus norvegicus, UniProt P34975).
T3 construct: sixty male Long-Evans hooded rats; from tissue; host or cells: whole living male Long-Evans hooded rats (in vivo)
Put plainly: Rat diuresis assay, antagonism of bremazocine-induced urination. The experiment is classed as in vivo, male Long-Evans hooded rats. The note with it: sc, rats, s.c., urinary output reduced to 50% of effect of 0.08 mg/kg bremazocine alone. How it is done: As such, the compounds of the invention were also evaluated in a rat diuresis assay conducted according to the following procedure described by Leander et al. in Drug Development Research 4:421-427 (1984) in an effort to further establish the ability of the present compounds to block kappa receptors.
According to this procedure, sixty male Long-Evans hooded rats (Charles River Breeding Laboratories, Portage, Mich.) weighing between about 300 and 500 grams each were housed either individually or in pairs in a temperature-controlled (23° C.) colony room which was illuminated between 6:00 A.M. and 6:00 P.M. Rodent chow and tap water were continuously available except during the measurement of urine output. The animals were used repeatedly, but no more frequently than twice a week.
The animals were then injected with various doses of the test compounds. To measure urine output, the animals were removed from the home cages, weighed, injected and placed in metabolism cages for 5 hr. Excreted urine was funneled into graduated cylinders. Cumulative urine volumes were determined at designated time intervals, usually at 2 and 5 hr after injection.
The compounds which are salt forms were dissolved in distilled water. If necessary, the compounds were dissolved in distilled water with the aid of either a few drops of lactic acid or hydrochloric acid and gentle warming. All injections were s.c. in a volume of 1 ml/kg of body weight. During tests for antagonism, two injections were given, one on each side of the body.
In the Table, column 1 provides the Example Number of the compound tested; column 2, the amount of compound in mg/kg necessary to reduce the urinary output to 50% of the effect produced by 0.08 mg/kg of bremazocine alone two hours after injection of bremazocine and the test compound; and column 3, the amount of compound in mg/kg necessary to reduce the urinary output to 50% of the effect produced by 0.08 mg/kg of bremazocine alone five hours after injection of bremazocine and the test compound.

In experiment [1] the test system is meal fed obese Zucker rats. Put plainly: Food consumption assay in meal fed obese Zucker rats. The experiment is classed as in vivo. The conditions noted are these: Rattus norvegicus, sc, 4 h, amount to decrease food consumption 20% during first four hours. The source says:
The following assay was employed to evaluate the ability of the compounds of the invention to effect food and water consumption of meal fed obese Zucker rats.
According to this procedure, 3-4 month old obese Zucker rats were trained to eat food daily from 8:00 A.M. to 4:00 P.M. only, such that the body weight gain approximates that if the rats were fed ad libitum. These rats were allowed to consume water at all times. Four groups of rats with four rats in each group, two female and two male, were formed. One group served as control for the other three groups each day. Each of the other groups were given a subcutaneous dose of the compound to be evaluated. The test compound was formulated in physiological saline containing 10% dimethylsulfoxide by volume.
Animals remained drug free for 4 days before the next test. Food and water consumption of each rat were measured for the first four hours. A test on one compound was run for three consecutive days. The drug effect was expressed as the percent of the control for that test day.
In the Table, column 1 gives the Example Number of the compound evaluated; and column 2 provides the ED20 in mg/kg, wherein ED20 represents the amount of compound evaluated in mg/kg necessary to decrease food consumption 20% during the first four hours of the experiment.

[2] abbreviates: 2 h, two hours after injection, read-out: AD50 Two Hours.
Where [3] appears, read: 5 h, five hours after injection, read-out: AD50 Five Hours.

SMILES strings stand for the structures. Where a name gives a salt, the structure may show the parent alone. Read-outs that look alike come from different tables or passages of the source.

T2 sequence (P33534 whole entry): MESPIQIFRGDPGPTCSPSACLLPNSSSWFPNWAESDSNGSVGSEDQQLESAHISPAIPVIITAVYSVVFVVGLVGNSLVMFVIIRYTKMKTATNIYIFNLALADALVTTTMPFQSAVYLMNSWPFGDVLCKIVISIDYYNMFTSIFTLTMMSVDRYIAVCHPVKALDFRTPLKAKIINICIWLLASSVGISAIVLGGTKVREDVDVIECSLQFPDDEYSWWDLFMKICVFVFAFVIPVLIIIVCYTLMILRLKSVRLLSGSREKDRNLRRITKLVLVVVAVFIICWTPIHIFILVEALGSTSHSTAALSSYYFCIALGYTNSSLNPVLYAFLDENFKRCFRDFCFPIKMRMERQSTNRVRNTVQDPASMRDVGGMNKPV
T1 sequence (P42866 whole entry): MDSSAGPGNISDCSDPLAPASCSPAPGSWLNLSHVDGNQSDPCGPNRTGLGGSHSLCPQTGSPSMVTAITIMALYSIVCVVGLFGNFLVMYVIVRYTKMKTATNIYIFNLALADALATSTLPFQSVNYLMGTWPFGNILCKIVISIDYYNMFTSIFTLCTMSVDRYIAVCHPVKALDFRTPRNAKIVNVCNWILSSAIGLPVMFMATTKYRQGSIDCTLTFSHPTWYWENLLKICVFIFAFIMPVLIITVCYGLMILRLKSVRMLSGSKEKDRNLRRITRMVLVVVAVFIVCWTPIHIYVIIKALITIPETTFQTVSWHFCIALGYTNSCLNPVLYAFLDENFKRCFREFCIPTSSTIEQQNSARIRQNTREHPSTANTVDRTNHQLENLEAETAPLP
T3 sequence (P34975 whole entry): as the sequence (P33534 whole entry) above, with D11E, S17A, S51P, A308V counted along it

Take `C[C@@H]1CN(CCCc2cccs2)CC[C@]1(C)c1cccc(O)c1` (stereo in doubt) [Example 37, trans-(-)-1-[3-(2-Thienyl)propyl]-3,4-dimethyl-4-(3-hydroxyphenyl)piperidine hydrochloride]: the ED50 came out at 0.24 mg/kg on mu receptor, 0.65 mg/kg at kappa receptor, 2.92 mg/kg at kappa receptors (setting [2]) and 1.66 mg/kg on kappa receptors (setting [3]). In experiment [1], this molecule returned an ED20 of 0.19 mg/kg.

In the case of `CC1CN(CCc2cccs2)CCC1(C)c1cccc(O)c1` (stereo not drawn) [Example 38, trans-(±)-1-[2-(2-Thienyl)ethyl]-3,4-dimethyl-4-(3-hydroxyphenyl)piperidine hydrochloride], the ED50 turned out to be 0.25 mg/kg at mu receptor, 0.25 mg/kg at kappa receptor and 2 mg/kg at kappa receptors (setting [3]).

As for `CC1CN(CC2CCCC2)CCC1(C)c1cccc(O)c1` (stereo not drawn) [Example 5, trans-(±)-1-(Cyclopentylmethyl)-3,4-dimethyl-4-(3-hydroxyphenyl)piperidine hydrochloride], the ED50 on mu receptor is 1.01 mg/kg; on kappa receptor, 0.54 mg/kg; at kappa receptors (setting [2]) it was 1.91 mg/kg; on kappa receptors (setting [3]), 0.92 mg/kg.

With `C[C@H]1CN(CCC(O)C2CCCC2)CC[C@@]1(C)c1cccc(O)c1` (relative stereo) [Example 18, trans-(±)-1-[R,S-(1-Cyclopentylpropanol-3-yl)]-3,4-dimethyl-4-(3-hydroxyphenyl)piperidine hydrochloride], the ED50 amounted to 0.04 mg/kg at mu receptor and 0.08 mg/kg on kappa receptor. For the same molecule, the ED20 in experiment [1] was 0.07 mg/kg.

Regarding `CC1CN(CCC2CCCCC2)CCC1(C)c1cccc(O)c1` (stereo not drawn) [Example 13, trans-(±)-1-(2-Cyclohexylethyl)-3,4-dimethyl-4-(3-hydroxyphenyl)piperidine hydrochloride], the ED50 at mu receptor is 0.1 mg/kg; on kappa receptor it was 0.12 mg/kg. For the same molecule, the ED20 in experiment [1] was 4.56 mg/kg.

In the case of `CC1CN(CCC(=O)C2CCCCC2)CCC1(C)c1cccc(O)c1` (stereo not drawn) [Example 33, trans-(±)-1-(3-Oxo-3-cyclohexylpropyl)-3,4-dimethyl-4-(3-hydroxyphenyl)piperidine hydrochloride], the values for the ED50 at mu receptor and on kappa receptor were 0.12 mg/kg and 0.26 mg/kg, respectively.

In the case of `CC1CN(CCCC2CCCC2)CCC1(C)c1cccc(O)c1` (stereo not drawn) [Example 9, trans-(±)-1-(3-Cyclopentylpropyl)-3,4-dimethyl-4-(3-hydroxyphenyl)piperidine hydrochloride], the ED50 was found to be 0.12 mg/kg on mu receptor, 0.13 mg/kg at kappa receptor, 2.4 mg/kg at kappa receptors (setting [2]) and 0.79 mg/kg on kappa receptors (setting [3]). In addition, in experiment [1], the ED20 was 1.25 mg/kg.

Regarding `CCCC(O)CCN1CC[C@@](C)(c2cccc(O)c2)[C@@H](C)C1` (relative stereo) [Example 30, trans-(±)-1-[R,S-(3-Hydroxyhexyl)]-3,4-dimethyl-4-(3-hydroxyphenyl)piperidine hydrochloride], the ED50 was determined as 0.11 mg/kg at mu receptor and 0.47 mg/kg at kappa receptor.

As for `O=C1CC[C@@]2(O)[C@H]3Cc4ccc(O)c5c4[C@@]2(CCN3CC2CC2)[C@H]1O5` [Compound F, naltrexone, reference compound], the ED20 in experiment [1] amounted to 2.05 mg/kg.

Consider `C[C@H]1CN(CCC(=O)c2ccccc2)CC[C@@]1(C)c1cccc(O)c1` (relative stereo) [Compound C, 3-[4β-(3-Hydroxyphenyl)-3β,4α-dimethylpiperidino]propiophenone maleate, reference compound], for which the ED50 turned out to be 0.14 mg/kg at mu receptor and 4.5 mg/kg at kappa receptor. In addition, the ED20 in experiment [1] is 3.72 mg/kg.

Take `CC1CN(CCC(C)(C)C)CCC1(C)c1cccc(O)c1` (stereo not drawn) [Example 12, trans-(±)-1-(3,3-Dimethylbutyl)-3,4-dimethyl-4-(3-hydroxyphenyl)piperidine hydrochloride]: the ED50 at mu receptor came out at 0.56 mg/kg; on kappa receptor, 0.42 mg/kg; on kappa receptors (setting [2]), 7.89 mg/kg; at kappa receptors (setting [3]) it was 8.13 mg/kg.

Regarding `CC(C)CCCCN1CC[C@](C)(c2cccc(O)c2)[C@H](C)C1` (stereo in doubt) [Example 29, trans-(-)-1-(5-Methylhexyl)-3,4-dimethyl-4-(3-hydroxyphenyl)piperidine hydrochloride], the ED50 on mu receptor stood at 0.35 mg/kg; at kappa receptor it was 0.89 mg/kg. Further, in experiment [1], the ED20 amounted to 0.31 mg/kg.

Consider `CC1CN(CCCc2cccs2)CCC1(C)c1cccc(O)c1` (stereo not drawn) [Example 35, trans-(±)-1-[3-(2-Thienyl)propyl]-3,4-dimethyl-4-(3-hydroxyphenyl)piperidine hydrochloride], for which the ED50 at mu receptor turned out to be 0.22 mg/kg; at kappa receptor it was 0.3 mg/kg; at kappa receptors (setting [2]) it was 2.2 mg/kg; at kappa receptors (setting [3]), 1.04 mg/kg. Moreover, the ED20 in experiment [1] was 0.08 mg/kg.

In the case of `CCCCCC(=O)CCN1CCC(C)(c2cccc(O)c2)C(C)C1` (stereo not drawn) [Example 32, trans-(±)-1-(3-Oxo-n-octyl)-3,4-dimethyl-4-(3-hydroxyphenyl)piperidine hydrochloride], the results for the ED50 at mu receptor and at kappa receptor were 0.17 mg/kg and 3.5 mg/kg, respectively.

For the molecule `CC(C)C(O)CCN1CC[C@@](C)(c2cccc(O)c2)[C@@H](C)C1` (relative stereo) [Example 20, trans-(±)-1-[R,S-(3-Hydroxy-4-methylpentyl)]-3,4-dimethyl-4-(3-hydroxyphenyl)piperidine hydrochloride], the ED50 came to 0.14 mg/kg at mu receptor and 0.35 mg/kg at kappa receptor. The same molecule had an ED20 in experiment [1] of 0.91 mg/kg.

For `CCCCCCCN1CCC(C)(c2cccc(O)c2)C(C)C1` (stereo not drawn) [Example 8, trans-(±)-1-(n-Heptyl)-3,4-dimethyl-4-(3-hydroxyphenyl)piperidine hydrochloride], the ED50 on mu receptor worked out at 0.21 mg/kg; on kappa receptor it was 0.64 mg/kg; on kappa receptors (setting [2]), 3.77 mg/kg; at kappa receptors (setting [3]) it was 3.33 mg/kg. Besides, the ED20 in experiment [1] was 0.44 mg/kg.

With `C[C@H]1CN(CCCc2cccs2)CC[C@@]1(C)c1cccc(O)c1` (stereo in doubt) [Example 36, trans-(+)-1-[3-(2-Thienyl)propyl]-3,4-dimethyl-4-(3-hydroxyphenyl)piperidine], the ED50 on mu receptor came out at 0.05 mg/kg; at kappa receptor it was 0.11 mg/kg; on kappa receptors (setting [2]), 4.65 mg/kg; at kappa receptors (setting [3]), 1.65 mg/kg. In experiment [1], the ED20 is 0.05 mg/kg.

In experiment [1], `C=CCN1CC[C@]23c4c5ccc(O)c4O[C@H]2C(=O)CC[C@@]3(O)[C@H]1C5` [Compound E, naloxone, reference compound] gave an ED20 of 1.4 mg/kg.

For the molecule `CCCCCCN1CC[C@](C)(c2cccc(O)c2)[C@H](C)C1` (stereo in doubt) [Example 2, trans-(-)-1-(n-Hexyl)-3,4-dimethyl-4-(3-hydroxyphenyl)piperidine hydrochloride], the ED50 on mu receptor was 0.21 mg/kg; at kappa receptor it was 0.29 mg/kg. This molecule also registered an ED20 in experiment [1] of 1.25 mg/kg.

For `C[C@H]1CN(CC[C@@H](O)C2CCCCC2)CC[C@@]1(C)c1cccc(O)c1` [Example 25, trans-(+)-1-[R-(3-Hydroxy-3-cyclohexylpropyl)]-3,4-dimethyl-4-(3-hydroxyphenyl)piperidine], the results for the ED50 at mu receptor and at kappa receptor were 0.03 mg/kg and 0.36 mg/kg, respectively. The ED20 in experiment [1] came out at 0.13 mg/kg.

Regarding `CCCCCCN1CC[C@@](C)(c2cccc(O)c2)[C@@H](C)C1` (stereo in doubt) [Example 1, trans-(+)-1-(n-Hexyl)-3,4-dimethyl-4-(3-hydroxyphenyl)piperidine hydrochloride], the ED50 worked out at 0.26 mg/kg at mu receptor and 0.22 mg/kg on kappa receptor. For the same molecule, the ED20 in experiment [1] was 0.08 mg/kg.

As for `CC(C)CCCCN1CC[C@@](C)(c2cccc(O)c2)[C@@H](C)C1` (stereo in doubt) [Example 28, trans-(+)-1-(5-Methylhexyl)-3,4-dimethyl-4-(3-hydroxyphenyl)piperidine hydrochloride], the ED50 at mu receptor came to 0.08 mg/kg; on kappa receptor, 0.22 mg/kg. Besides, in experiment [1], the ED20 was found to be 0.12 mg/kg.
